Legend:
[1] = tested on: Rat aortas (aortic ring sections); experiment: Rat aortic ring angiogenic sprouting assay in collagen I matrices; format: cell-based; details: 0.5 μM in collagen I matrix; rat aortic rings; vs untreated and GST controls
Description: (A) Diagram of the murine syndecan-2 mutant proteins used in this study. (B) Rat aortas were seeded in collagen I matrices as above containing 0.5 μM of GST(control), S2ED or the mutant forms of S2ED. Sprouts from 8 rings per condition were counted and the mean calculated. Error bars represent the SEM and significance was calculated using a one way ANOVA with Bonferroni multiple comparison (p***<0.005, p****<0.0001).
In another assay with murine peptides, full length S2ED, S2EDΔP^124-F^141 (lacking adhesion regulatory domain) or S2EDΔL^73-G^123 (truncated form containing only the adhesion regulatory residues) were incorporated into collagen matrices in which aortic ring sections were embedded (FIGS. 4A and B).
Aortic ring assay: Thoracic aortas dissected from cervically dislocated 180-200 g male wistar rats (Harlan Laboratories) or 6 week old C57BL/6 mice (Charles River) were sliced into 0.5 mm sections and incubated overnight in serum free OptiMEM (Invitrogen) at 37° C. […] Angiogenic sprouts from rat and mouse aortas were counted after 4 days and 8 days respectively (Method based on that of Nicosia and Ottinetti (Laboratory Investigation 63:115-122, 1990) and modified in De Rossi et al. (Journal of Genetic Syndromes & Gene Therapy 4, 2013).

CD148 = target: T1, CD148 (Mus musculus, UniProt Q64455); experiment: CD148 pull down from EC lysates with GST fusion protein coated beads, Western blot; format: binding; details: protein-coated beads as bait
T1 construct: endogenous in cells; bEND3.1 cells
T1 sequence (Q64455 29-1238): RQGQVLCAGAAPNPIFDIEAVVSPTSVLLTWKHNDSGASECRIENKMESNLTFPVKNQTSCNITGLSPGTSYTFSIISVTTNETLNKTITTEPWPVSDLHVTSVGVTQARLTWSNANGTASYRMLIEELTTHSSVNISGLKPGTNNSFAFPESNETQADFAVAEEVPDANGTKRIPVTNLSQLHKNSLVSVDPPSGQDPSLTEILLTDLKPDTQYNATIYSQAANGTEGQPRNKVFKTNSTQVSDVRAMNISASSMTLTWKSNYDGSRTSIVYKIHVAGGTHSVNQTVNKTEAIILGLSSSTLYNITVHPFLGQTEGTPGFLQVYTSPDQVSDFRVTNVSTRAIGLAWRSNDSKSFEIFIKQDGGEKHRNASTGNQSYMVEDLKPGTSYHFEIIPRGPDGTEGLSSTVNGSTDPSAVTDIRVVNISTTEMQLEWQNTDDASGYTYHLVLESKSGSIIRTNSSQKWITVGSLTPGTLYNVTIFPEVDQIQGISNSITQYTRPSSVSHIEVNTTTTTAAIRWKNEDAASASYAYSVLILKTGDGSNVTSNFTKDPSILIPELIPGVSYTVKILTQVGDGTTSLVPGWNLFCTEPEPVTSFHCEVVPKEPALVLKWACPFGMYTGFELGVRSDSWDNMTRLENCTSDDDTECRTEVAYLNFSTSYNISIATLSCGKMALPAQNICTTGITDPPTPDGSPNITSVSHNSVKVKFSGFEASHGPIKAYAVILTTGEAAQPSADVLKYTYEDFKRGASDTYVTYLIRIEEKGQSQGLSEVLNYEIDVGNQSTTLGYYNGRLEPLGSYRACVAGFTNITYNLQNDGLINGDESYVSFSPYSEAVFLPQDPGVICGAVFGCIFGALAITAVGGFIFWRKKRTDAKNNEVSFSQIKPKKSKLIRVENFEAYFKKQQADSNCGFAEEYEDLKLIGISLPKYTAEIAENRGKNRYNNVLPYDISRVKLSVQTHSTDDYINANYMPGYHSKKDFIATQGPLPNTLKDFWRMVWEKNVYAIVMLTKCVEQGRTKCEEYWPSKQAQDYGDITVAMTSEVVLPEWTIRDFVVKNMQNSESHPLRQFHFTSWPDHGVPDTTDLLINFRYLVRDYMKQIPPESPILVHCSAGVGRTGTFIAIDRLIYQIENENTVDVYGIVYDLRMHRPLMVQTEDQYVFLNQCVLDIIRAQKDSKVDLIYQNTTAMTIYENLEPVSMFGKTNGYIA
Description: (A) bEND3.1, MLEC and sEND cells express CD148. Western blot of lysates from the EC lines indicated were probed with antibodies to CD148 or β-tubulin. (B) CD148 interacts with murine syndecan extracellular core protein (S2ED). Cell lysates from sEND cells were incubated with beads coated with GST(control), S2ED, S2EDΔP^124-F^141 or S2EDΔL^73-G^123. Precipitates were analysed by Western blot for the presence of CD148. CD148 was only pulled down by forms of S2ED which contain the C-terminal 18 amino acid adhesion regulatory domain. Blot is representative of 4 experiments.
In fibroblasts the protein tyrosine phosphatase receptor CD148 interacts directly with the adhesion regulatory domain of S2ED leading to β1 integrin mediated cell attachment and spreading (Whiteford et al., 2011 Mol Biol Cell, 22(19):3609-24). To determine whether CD148 is a mediator for EC responses to S2ED the expression of CD148 on ECs from brain, lung and skin was confirmed.
CD148 pulldown and Western blot: Confluent bEND3.1 cells were lysed in 1% tritonx100 in TBS containing HALT protease and phosphatase inhibitors (Pierce). GST and S2ED were bound to glutathione-sepharose beads (GE Healthcare) and were added to cell lysates and incubated for 1 hour. Beads were isolated by centrifugation and washed twice in TBS, prior to incubation in Laemmli buffer and analysis by Western blot using standard procedures.

brain ECs = experiment: Scratch wound migration assay on brain ECs with murine syndecan-2 GST fusion proteins; format: cell-based; details: 0.5 μM fusion protein, vs GST alone
Description: Scratch wound migration assays were performed in the presence of 0.5 μM of the fusion proteins indicated on brain ECs. Cell migration is measured by time lapse microscopy using an Olympus IX81 microscope with a controlled environment chamber set at 37° C., 10% CO2. Images were captured every 30 minutes using a Hamamatsu Orca ER digital camera and processed using Cell^M software (Olympus). (A) Phase contrast images 9 hours after the scratch was made. (B) EC migration speed is reduced in the presence of S2ED proteins containing the 18aa regulatory domain. Cell speed data represents mean measurements from at least 25 individual cells at the leading edge per treatment.
Migration assays were also performed on brain ECs in the presence of murine syndecan-2 GST fusion proteins—either S2ED or the truncated forms of this protein (S2EDΔP^124-F^141 and S2EDΔL^73-G^123).
Scratch wound migration assays: Scratch wound migration assays were performed on confluent monolayers of ECs. Wounds were made using a pipette tip, and fusion proteins were added to the medium and images were captured every 30 minutes for 12 hours by time lapse microscopy using an Olympus IX81 microscope. Percentage wound closure was calculated and individual cells tracked using Image J.

Substance | Angiogenic sprout formation [1] | Pull-down of CD148 from EC lysates (CD148) | EC cell migration (wound closure) (brain ECs)
S2ED: murine syndecan-2 extracellular core protein, full length, GST fusion protein (SEQ ID NO 3) | severely compromised | successfully pull-down CD148 | inhibited EC cell migration
S2EDΔL^73-G^123: truncated murine syndecan-2 GST fusion protein containing only the adhesion regulatory residues (SEQ ID NO 5) | severely compromised | successfully pull-down CD148 | inhibited EC cell migration
S2EDΔP^124-F^141: murine syndecan-2 GST fusion mutant lacking adhesion regulatory domain (SEQ ID NO 4) | – | No CD148 was evident | did not affect cell migration

Reference: patent publication US10766942B2, “Fragments of syndecan-2 having anti-angiogenic activity” (Queen Mary University of London, priority 2014, dated 2020)
